Reference: patent US20230095836A1, “SUBSTITUTED 5,6-DIPHENYL-3(2H)-PYRIDAZINONES FOR USE AS FUNGICIDES” (FMC Corporation, priority 2020, published 2023)

Legend:
Zymoseptoria tritici = experiment: Test A: test solution sprayed on wheat seedlings, inoculated next day with Zymoseptoria tritici (wheat leaf blotch); disease rating (100 = 100% disease control, 0 = no control; dash = not tested); type: in vivo
Procedure, shortened: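 Wheat seedlings sprayed to run-off with test solution, inoculated next day with Z. tritici spores, held 48 h at 24° C in saturated atmosphere, then 17 days at 20° C before rating. Scores are % disease control relative to controls (100 = full control, 0 = none).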

[1] = system: Puccinia recondita f. sp. tritici; experiment: Test B: test solution sprayed on wheat seedlings, inoculated next day with Puccinia recondita f. sp. tritici (wheat leaf rust); disease rating (100 = 100% disease control, 0 = no control; dash = not tested); type: in vivo
Description: The resulting test suspensions were then used in Tests A-F. The test solution was sprayed to the point of run-off on wheat seedlings. […] A rating of 100 indicates 100% disease control and a rating of 0 indicates no disease control (relative to the controls). A dash (—) indicates the compound was not tested.

[2] = system: Blumeria graminis f. sp. tritici; experiment: Test C: test suspension sprayed on wheat seedlings, inoculated next day with Blumeria graminis f. sp. tritici (wheat powdery mildew); visual disease rating (100 = 100% disease control, 0 = no control; dash = not tested); type: in vivo
Procedure, shortened: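 Wheat seedlings were sprayed to run-off with test suspension, then dusted next day with Blumeria graminis f. sp. tritici spores. After 8 days at 20 °C in a growth chamber, disease was rated visually as percent control relative to untreated controls.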

Phakopsora pachyrhizi = experiment: Test D: test solution sprayed on soybean seedlings, inoculated next day with Phakopsora pachyrhizi (Asian soybean rust); visual disease rating (100 = 100% disease control, 0 = no control; dash = not tested); type: in vivo
Procedure, shortened: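 Compounds predissolved in acetone (3% of final volume), suspended at ppm concentrations in 50/50 acetone/water with 250 ppm PEG400, sprayed to run-off on soybean seedlings. Inoculated next day with spores, 24 h saturated atmosphere at 22 °C, then 8 days growth chamber at 22 °C; visual rating, 100 = full control.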

Botrytis cinerea = experiment: Test E: test suspension sprayed on tomato seedlings, inoculated next day with Botrytis cinerea (tomato Botrytis); visual disease rating (100 = 100% disease control, 0 = no control; dash = not tested); type: in vivo
Procedure, shortened: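 Tomato seedlings were sprayed to run-off and inoculated next day with Botrytis cinerea spores. They were held 48 h at 20° C in saturated humidity, then 3 days at 24° C. Disease control was rated visually against controls (100 = full, 0 = none).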

Alternaria solani = experiment: Test F: test suspension sprayed on tomato seedlings, inoculated next day with Alternaria solani (tomato early blight); visual disease rating (100 = 100% disease control, 0 = no control; dash = not tested); type: in vivo
Procedure, shortened: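 Tomato seedlings sprayed to run-off with test suspension, inoculated next day with A. solani spores, held saturated at 27° C. for 48 h, then 20° C. for 3 days. Disease visually rated as % control relative to untreated controls.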

Compound	Test A disease control rating (Zymoseptoria tritici; 50 ppm)	Test B disease control rating ([1]; 50 ppm)	Test C disease control rating ([2]; 50 ppm)	Test D disease control rating (Phakopsora pachyrhizi; 50 ppm)	Test E disease control rating (Botrytis cinerea; 50 ppm)	Test F disease control rating (Alternaria solani; 50 ppm)	also measured
COc1ccc(Cl)c(-c2nn(C)c(=O)c(Cl)c2-c2c(F)cccc2F)c1 [Compound 57, 4-chloro-6-(2-chloro-5-methoxyphenyl)-5-(2,6-difluorophenyl)-2-methyl-3(2H)-pyridazinone]							pest or weed control at 50 ppm (Zymoseptoria tritici; 50 ppm): 100%; pest or weed control at 50 ppm ([1]; 50 ppm): 100%; pest or weed control at 50 ppm ([2]; 50 ppm): 99%; pest or weed control at 50 ppm (Phakopsora pachyrhizi; 50 ppm): 99%; pest or weed control at 50 ppm (Botrytis cinerea; 50 ppm): 99%; pest or weed control at 50 ppm (Alternaria solani; 50 ppm): 100%; melting point: 134 to 137 °C
COc1cc(OC)c(Cl)c(-c2nn(C)c(=O)cc2-c2ccc(F)cc2Cl)c1 [Compound 25, 6-(2-chloro-3,5-dimethoxyphenyl)-5-(2-chloro-4-fluorophenyl)-2-methyl-3(2H)-pyridazinone]							pest or weed control at 50 ppm (Zymoseptoria tritici; 50 ppm): 100%; pest or weed control at 50 ppm ([1]; 50 ppm): 100%; pest or weed control at 50 ppm ([2]; 50 ppm): 98%; pest or weed control at 50 ppm (Phakopsora pachyrhizi; 50 ppm): 94%; pest or weed control at 50 ppm (Botrytis cinerea; 50 ppm): 100%; pest or weed control at 50 ppm (Alternaria solani; 50 ppm): 85%; melting point: 121 to 125 °C
CCOC(=O)c1c(-c2ccc(F)cc2Cl)c(-c2ccc(F)cc2Cl)nn(C)c1=O [Compound 153]							Test A disease control rating (Zymoseptoria tritici; 250 ppm): 0%; Test B disease control rating ([1]; 250 ppm): 0%; Test C disease control rating ([2]; 250 ppm): 96%; Test D disease control rating (Phakopsora pachyrhizi; 250 ppm): 71%; Test E disease control rating (Botrytis cinerea; 250 ppm): 0%; Test F disease control rating (Alternaria solani; 250 ppm): 0%
CCn1nc(-c2cc(OC)cc(OC)c2)c(-c2c(F)cccc2F)c(Br)c1=O [Compound 15]	78%	41%	13%	0%	68%	0%	
COc1cc(OC)c(Br)c(-c2nn(C)c(=O)c(Cl)c2-c2ccc(F)cc2Cl)c1 [Compound 77, 6-(2-bromo-3,5-dimethoxyphenyl)-4-chloro-5-(2-chloro-4-fluorophenyl)-2-methyl-3(2H)-pyridazinone]							pest or weed control at 50 ppm (Zymoseptoria tritici; 50 ppm): 100%; pest or weed control at 50 ppm ([1]; 50 ppm): 100%; pest or weed control at 50 ppm ([2]; 50 ppm): 99%; pest or weed control at 50 ppm (Phakopsora pachyrhizi; 50 ppm): 100%; pest or weed control at 50 ppm (Botrytis cinerea; 50 ppm): 97%; pest or weed control at 50 ppm (Alternaria solani; 50 ppm): 100%
COc1cc(F)c(-c2c(-c3cc(OC)ccc3Cl)nn(C)c(=O)c2Cl)c(F)c1 [Compound 96]	100%	100%	97%	100%	96%	100%	
COc1ccc(Cl)c(-c2nn(C)c(=O)c(Cl)c2-c2ccc(C#N)cc2Cl)c1 [Compound 186]	99%	100%	97%	99%	90%	100%	
Cn1nc(-c2ccc(F)cc2Cl)c(-c2ccc(F)cc2Cl)c(CCl)c1=O [Compound 170]	99%	89%	76%	0%	51%	80%	
COc1cc(F)c(Br)c(-c2nn(C)c(=O)c(Cl)c2-c2ccc(F)cc2Cl)c1 [Compound 159]	100%	100%	99%	100%	99%	100%	
COc1c(-c2ccc(F)cc2Cl)c(-c2cc(C#N)ccc2Cl)nn(C)c1=O [Compound 53]	100%	100%	99%	68%	92%	40%	
COc1ccc(Cl)c(-c2nn(C)c(=O)c(Cl)c2-c2ccccc2)c1 [Compound 95]	100%	99%	97%	0%	96%	24%	
CCc1c(-c2ccc(F)cc2Cl)c(-c2cc(F)ccc2Cl)nn(C)c1=O [Compound 129]	100%	100%	100%	67%	99%	100%	
Cc1c(-c2ccc(F)cc2Cl)c(-c2cc(O)ccc2Cl)nn(C)c1=O [Compound 161]	98%	99%	100%	99%	96%	47%	
Cn1nc(-c2cc(F)ccc2Br)c(-c2ccc(F)cc2Cl)c(Cl)c1=O [Compound 119]	100%	100%	100%	99%	96%	100%	
COc1cc(F)cc(-c2nn(C)c(=O)cc2-c2c(F)cccc2F)c1 [Compound 27]							Test A disease control rating (Zymoseptoria tritici; 250 ppm): 99%; Test B disease control rating ([1]; 250 ppm): 99%; Test C disease control rating ([2]; 250 ppm): 97%; Test D disease control rating (Phakopsora pachyrhizi; 250 ppm): 56%; Test E disease control rating (Botrytis cinerea; 250 ppm): 96%; Test F disease control rating (Alternaria solani; 250 ppm): 0%
Cn1nc(-c2ccc(F)cc2Cl)c(-c2ccc(F)cc2Cl)c(CF)c1=O [Compound 171]	99%	99%	99%	0%	100%	96%	
CCn1nc(-c2c(F)cccc2F)c(-c2c(F)cccc2F)cc1=O [Compound 23]							Test A disease control rating (Zymoseptoria tritici; 250 ppm): 0%; Test B disease control rating ([1]; 250 ppm): 0%; Test C disease control rating ([2]; 250 ppm): 0%; Test D disease control rating (Phakopsora pachyrhizi; 250 ppm): 0%; Test E disease control rating (Botrytis cinerea; 250 ppm): 0%; Test F disease control rating (Alternaria solani; 250 ppm): 0%
COc1cc(OC)c(Br)c(-c2nn(C)c(=O)c(OC)c2-c2ccc(F)cc2Cl)c1 [Compound 79]	100%	100%	100%	100%	97%	100%	
CCc1c(-c2c(F)cccc2F)c(-c2cc(OC)ccc2Cl)nn(C)c1=O [Compound 179, 6-(2-chloro-5-methoxyphenyl)-5-(2,6-difluorophenyl)-4-ethyl-2-methyl-3(2H)-pyridazinone]							pest or weed control at 50 ppm (Zymoseptoria tritici; 50 ppm): 100%; pest or weed control at 50 ppm ([1]; 50 ppm): 100%; pest or weed control at 50 ppm ([2]; 50 ppm): 100%; pest or weed control at 50 ppm (Phakopsora pachyrhizi; 50 ppm): 100%; pest or weed control at 50 ppm (Botrytis cinerea; 50 ppm): 94%; pest or weed control at 50 ppm (Alternaria solani; 50 ppm): 100%
Cn1nc(-c2ccccc2Cl)c(-c2ccc(F)cc2Cl)c(O)c1=O [Compound 182]	0%	0%	0%	0%	0%	0%	
COc1cc(F)cc(-c2nn(C)c(=O)cc2-c2c(F)cccc2F)c1Cl [Compound 206]	97%	100%	93%	65%	100%	76%	
CCn1nc(-c2cc(OC)cc(OC)c2Cl)c(-c2c(F)cccc2F)c(Cl)c1=O [Compound 9]	100%	100%	99%	99%	99%	91%	
COc1ccc(Cl)c(-c2nn(C)c(=O)c(OC)c2-c2ccc(F)cc2F)c1 [Compound 48]	100%	100%	99%	97%	98%	99%	
CCn1nc(-c2ccc(F)cc2Cl)c(-c2ccc(F)cc2Cl)cc1=O [Compound 11]							Test A disease control rating (Zymoseptoria tritici; 250 ppm): 2%; Test B disease control rating ([1]; 250 ppm): 9%; Test C disease control rating ([2]; 250 ppm): 64%; Test D disease control rating (Phakopsora pachyrhizi; 250 ppm): 0%; Test E disease control rating (Botrytis cinerea; 250 ppm): 87%; Test F disease control rating (Alternaria solani; 250 ppm): 0%
COc1ccc(-c2nn(C)c(=O)c(Cl)c2-c2ccc(F)cc2Cl)c(F)c1 [Compound 163]	100%	100%	78%	77%	100%	99%	
